ChEMBL document CHEMBL1137469, “(3R,4S)-4-(2,4,5-Trifluorophenyl)-pyrrolidin-3-ylamine inhibitors of dipeptidyl peptidase IV: synthesis, in vitro, in vivo, and X-ray crystallographic characterization” (Bioorg Med Chem Lett, 2007)

Tests used:
[1] = target: Dipeptidyl peptidase 4 (Homo sapiens, UniProt P27487)
[2] = target: Dipeptidyl peptidase 2 (Homo sapiens, UniProt Q9UHL4); assay: Inhibition of human recombinant DPP2
[3] = Volume of distribution at steady state in rat plasma; assay type: ADME, organism-based; conditions: read-out: Vdss
[4] = Half life in iv dosed rat plasma; assay type: ADME, organism-based
[5] = Half life in iv dosed dog plasma; assay type: ADME, organism-based, Canis lupus familiaris
[6] = Percent of unbound ligand in dog plasma; assay type: ADME, cell-free, Canis lupus familiaris
[7] = Plasma clearance in dog; assay type: ADME, organism-based, Canis lupus familiaris
[8] = target: T1, Dipeptidyl peptidase 3 (Homo sapiens, UniProt Q9NY33); assay: Inhibition of DPP3
T1 sequence (Q9NY33 whole entry): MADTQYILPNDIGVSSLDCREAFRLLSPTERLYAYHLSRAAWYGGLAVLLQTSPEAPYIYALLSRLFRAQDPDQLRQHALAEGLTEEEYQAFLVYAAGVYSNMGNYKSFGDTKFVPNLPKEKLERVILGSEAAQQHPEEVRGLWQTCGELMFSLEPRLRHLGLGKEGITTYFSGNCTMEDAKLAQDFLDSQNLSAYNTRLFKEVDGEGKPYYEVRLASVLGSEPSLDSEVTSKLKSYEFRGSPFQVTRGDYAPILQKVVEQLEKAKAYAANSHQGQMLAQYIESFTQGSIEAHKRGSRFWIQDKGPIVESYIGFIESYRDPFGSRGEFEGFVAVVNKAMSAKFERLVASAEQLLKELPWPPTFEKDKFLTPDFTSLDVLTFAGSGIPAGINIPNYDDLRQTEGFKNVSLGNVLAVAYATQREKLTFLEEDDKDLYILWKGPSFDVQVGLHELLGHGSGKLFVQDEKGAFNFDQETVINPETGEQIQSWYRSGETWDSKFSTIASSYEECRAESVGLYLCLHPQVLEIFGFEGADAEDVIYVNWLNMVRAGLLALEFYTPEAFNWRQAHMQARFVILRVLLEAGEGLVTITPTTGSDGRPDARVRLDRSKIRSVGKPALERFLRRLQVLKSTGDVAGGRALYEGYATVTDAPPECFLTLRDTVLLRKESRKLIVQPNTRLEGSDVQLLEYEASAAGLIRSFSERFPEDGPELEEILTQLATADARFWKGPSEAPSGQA

[9] = Volume of distribution at steady state in dog plasma; assay type: ADME, organism-based, Canis lupus familiaris; conditions: read-out: Vdss
[10] = Plasma clearance in rat; assay type: ADME, organism-based
[11] = Oral bioavailability in rat plasma; assay type: ADME, organism-based
[12] = Half life in po dosed rat plasma; assay type: ADME, organism-based

Dipeptidyl peptidase 4, sequence (P27487 whole entry): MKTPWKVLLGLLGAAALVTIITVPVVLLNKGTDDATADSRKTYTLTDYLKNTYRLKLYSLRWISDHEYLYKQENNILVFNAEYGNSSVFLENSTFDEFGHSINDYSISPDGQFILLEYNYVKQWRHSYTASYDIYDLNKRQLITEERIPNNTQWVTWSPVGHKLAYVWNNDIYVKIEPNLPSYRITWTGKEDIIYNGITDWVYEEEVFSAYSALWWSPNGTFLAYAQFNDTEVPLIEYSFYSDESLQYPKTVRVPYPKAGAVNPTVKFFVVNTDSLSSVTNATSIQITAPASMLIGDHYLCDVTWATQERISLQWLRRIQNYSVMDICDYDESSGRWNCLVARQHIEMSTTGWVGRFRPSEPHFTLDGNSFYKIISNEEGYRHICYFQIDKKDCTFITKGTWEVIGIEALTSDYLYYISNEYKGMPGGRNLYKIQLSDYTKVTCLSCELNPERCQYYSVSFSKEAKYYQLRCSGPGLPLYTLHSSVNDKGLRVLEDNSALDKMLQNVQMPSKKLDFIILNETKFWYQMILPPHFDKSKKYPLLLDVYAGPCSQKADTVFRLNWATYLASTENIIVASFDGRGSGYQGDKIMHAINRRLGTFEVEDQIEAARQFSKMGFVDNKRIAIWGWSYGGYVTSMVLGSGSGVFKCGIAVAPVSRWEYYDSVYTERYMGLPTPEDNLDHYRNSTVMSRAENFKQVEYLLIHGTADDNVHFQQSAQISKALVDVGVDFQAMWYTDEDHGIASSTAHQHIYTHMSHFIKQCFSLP

IC50 [1] [µM] | SMILES | further results
> 3 | Nc1ccc([C@@H]2CN(c3nc4c(cc3F)c(=O)c(C(=O)O)cn4C3CC3)C[C@@H]2N)cc1 (relative stereo) | –
> 3 | N[C@H]1CN(c2cc(Cl)nc(-c3ccccc3)n2)C[C@@H]1c1ccccc1 | –
> 3 | N[C@H]1CN(c2cc(-c3ccc(O)cc3)ncn2)C[C@@H]1c1ccccc1 | –
> 3 | COc1ccc([C@@H]2CN(c3nc4c(cc3F)c(=O)c(C(=O)O)cn4C3CC3)C[C@@H]2N)cc1 (relative stereo) | –
> 3 | Cn1cnc2c(N3C[C@H](c4ccccc4)[C@@H](N)C3)ncnc21 | –
> 3 | CC(C)c1ccc([C@@H]2CN(c3nc4c(cc3F)c(=O)c(C(=O)O)cn4C3CC3)C[C@@H]2N)cc1 (relative stereo) | –
– | N[C@H]1CN(c2cc(-c3ccccc3)ncn2)C[C@@H]1c1cc(F)c(F)cc1F | IC50 [2]: 18 µM
> 3 | N[C@H]1CN(c2nc3c(cc2F)c(=O)c(C(=O)O)cn3C2CC2)C[C@H]1c1ccc(O)cc1 (relative stereo) | –
> 3 | N[C@H]1CN(c2cnc3ccccc3n2)C[C@@H]1c1ccccc1 | –
– | N[C@H]1CN(c2cc(-c3cccc(F)c3)ncn2)C[C@@H]1c1cc(F)c(F)cc1F | IC50 [2]: 15 µM
> 3 | N[C@H]1CN(c2cc(-c3ccc(Cl)cc3)ncn2)C[C@@H]1c1ccccc1 | –
> 3 | N[C@H]1CN(c2ccc3ccccc3n2)C[C@@H]1c1ccccc1 | –
> 3 | CN(C)c1ccc([C@@H]2CN(c3nc4c(cc3F)c(=O)c(C(=O)O)cn4C3CC3)C[C@@H]2N)cc1 (relative stereo) | –
> 3 | N[C@H]1CN(c2cc(-c3ccccc3Cl)ncn2)C[C@@H]1c1ccccc1 | –
– | COc1ccc(-c2cc(N3C[C@H](c4cc(F)c(F)cc4F)[C@@H](N)C3)ncn2)cn1 | Vd [3]: 0.67 L/kg; half-life [4]: 2.8 h; half-life [5]: 5.1 h; fraction unbound [6]: 0.17; clearance [7]: 4.8 mL/min/kg; IC50 [8]: > 30 µM; Vd [9]: 1.9 L/kg; clearance [10]: 4.4 mL/min/kg; IC50 [2]: 19 µM; bioavailability [11]: 57%; half-life [12]: 3.3 h
> 3 | COC(=O)c1ccc([C@@H]2CN(c3nc4c(cc3F)c(=O)c(C(=O)O)cn4C3CC3)C[C@@H]2N)cc1 (relative stereo) | –
> 3 | N#Cc1cccnc1N1C[C@H](c2ccccc2)[C@@H](N)C1 | –
> 3 | CC(=O)c1ccc(N2C[C@H](c3ccccc3)[C@@H](N)C2)nc1 | –
